# US11510428B2, “Rebaudioside B and derivatives” (SWEET GREEN FIELDS INTERNATIONAL CO., LIMITED, priority 2011, dated 2022)
# Tests used:
# [1] = Taste comparison between RB and RA by experts (Example 7); assay type: in vivo, human; conditions: 400 ppm aqueous solution
# Description: Taste comparison between RB (prepared in Example 1, first part) and RA Purity of RA was 99.0% by HPLC and RB was 99.1% by HPLC.
# RB sample: 400 ppm aqueous solution
# RA sample: 400 ppm aqueous solution
# [2] = cited from earlier work
# [3] = General taste and sweetness statements on steviol glycosides, RA, RB and RB salt (background and description); assay type: in vivo
# [4] = Sensory evaluation after adding Reb D to samples of Example 9 (Example 10); assay type: in vivo, human; conditions: total concentration of rebaudiosides 400 ppm
compound,measurement,setting,value
"C=C1C[C@@]23CC[C@H]4[C@@](C)(CCC[C@@]4(C)C(=O)O[C@@H]4O[C@H](CO)[C@@H](O)[C@H](O)[C@H]4O)[C@@H]2CC[C@]1(O[C@@H]1O[C@H](CO)[C@@H](O)[C@H](O[C@@H]2O[C@H](CO)[C@@H](O)[C@H](O)[C@H]2O)[C@H]1O[C@@H]1O[C@H](CO)[C@@H](O)[C@H](O)[C@H]1O)C3 [RA, Rebaudioside A]",Bitterness,[1]; 7/10 experts,strong bitterness profile
same,Bitterness and aftertaste,"[2]; 100% purity RA, e.g. 500 ppm aqueous solution",appear strongly at higher concentrations
same,Taste quality,"[2]; increased sweetness and decreased bitterness, Phytochemistry 68, 2007",better than stevioside
same,Concentration that provides maximum sweetness,[3]; aqueous solution,About 250 ppm
same,Concentration above which there is no increased perceived sweetness,[3]; in food products,about 500 ppm
"C=C1C[C@@]23CC[C@H]4[C@@](C)(CCC[C@@]4(C)C(=O)O[C@@H]4O[C@H](CO)[C@@H](O)[C@H](O)[C@H]4O[C@@H]4O[C@H](CO)[C@@H](O)[C@H](O)[C@H]4O)[C@@H]2CC[C@]1(O[C@@H]1O[C@H](CO)[C@@H](O)[C@H](O[C@@H]2O[C@H](CO)[C@@H](O)[C@H](O)[C@H]2O)[C@H]1O[C@@H]1O[C@H](CO)[C@@H](O)[C@H](O)[C@H]1O)C3 [Reb D, Rebaudioside D]",Sensory taste profile on addition of Reb D,[4],can improve sensory taste profile
Rebaudioside B [RB],Taste profile,[1],tasted better than RA
same,Bitterness,[1]; 7/10 experts,less bitterness than RA
same,Sweetness,[1]; 7/10 experts,lesser sweetness than RA
same,On-set profile,[3]; compared with other steviol glycosides,short on-set profile
